Test results as given in patent US20230219965A1 (KSQ Therapeutics, Inc., priority 2020, published 2023).
Like-named read-outs stand apart in the source and are kept apart here.

Key:
[1] = Liver microsomal metabolic stability, rat liver microsomes (RLM); conditions: rat, liver microsomes, t1/2 (min) in RLM, 1 μM compound, 1 mg/mL microsomes, NADPH
[2] = Liver microsomal metabolic stability, human liver microsomes (HLM); conditions: human, liver microsomes
USP1/UAF1 enzyme = USP1/UAF1 enzyme (Homo sapiens, UniProt O94782); test: USP1/UAF1 deubiquitination assay (ubiquitin-rhodamine 110 substrate); type: biochemical; conditions: read-out: USP1 IC50 (Ub-Rho)
In short: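 Cleavage of 150 nM ubiquitin-rhodamine 110 by 0.05 nM USP1/UAF1 was followed as fluorescence (Ex480/Em540, kinetic, 30 min) in Tris-HCl pH 7.8 buffer with EDTA, BSA, DTT and Tween-20. Compounds, top 10 μM, were preincubated with enzyme 10 min; % inhibition against no-enzyme and DMSO wells gave four-parameter IC50s.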

[3] = ADME solubility determination in PBS at pH 2.0 and pH 7.4; type: physicochemical; conditions: phosphate buffered saline, 25 °C, thermodynamic from solid
Method: Certain Compounds of the Disclosure were assessed for ADME solubility at pH 2.0 and pH 7.4.
Stock solutions were prepared by adding each compound to DMSO at a concentration of 10 mM. Samples were prepared by adding 50 μL of each stock solution to separate vials. The vials were loaded onto a 96-well rack and dried. 500 μL of Phosphate Buffered Saline (PBS) pH 7.4 or PBS pH 2.0 were added into each vial. The vials were then shaken at 25° C. and 1,100 rpm for 24 hours.
After 24 hours, the vials were centrifuged at 3220 G and 25° C. for 30 minutes. The supernatant fluid was analyzed by LC-MS/MS against a standard of known concentration. The solubility of each sample was then calculated using the equation below: […]
where DF is the dilution factor.

[4] = pH 2, aqueous buffer, PBS pH 2.0, 25° C., read-out: Solubility at pH 2.0
[5] = pH 7.4, aqueous buffer, PBS pH 7.4, 25° C., read-out: Solubility at pH 7.4

Chain of USP1/UAF1 enzyme (O94782 whole entry): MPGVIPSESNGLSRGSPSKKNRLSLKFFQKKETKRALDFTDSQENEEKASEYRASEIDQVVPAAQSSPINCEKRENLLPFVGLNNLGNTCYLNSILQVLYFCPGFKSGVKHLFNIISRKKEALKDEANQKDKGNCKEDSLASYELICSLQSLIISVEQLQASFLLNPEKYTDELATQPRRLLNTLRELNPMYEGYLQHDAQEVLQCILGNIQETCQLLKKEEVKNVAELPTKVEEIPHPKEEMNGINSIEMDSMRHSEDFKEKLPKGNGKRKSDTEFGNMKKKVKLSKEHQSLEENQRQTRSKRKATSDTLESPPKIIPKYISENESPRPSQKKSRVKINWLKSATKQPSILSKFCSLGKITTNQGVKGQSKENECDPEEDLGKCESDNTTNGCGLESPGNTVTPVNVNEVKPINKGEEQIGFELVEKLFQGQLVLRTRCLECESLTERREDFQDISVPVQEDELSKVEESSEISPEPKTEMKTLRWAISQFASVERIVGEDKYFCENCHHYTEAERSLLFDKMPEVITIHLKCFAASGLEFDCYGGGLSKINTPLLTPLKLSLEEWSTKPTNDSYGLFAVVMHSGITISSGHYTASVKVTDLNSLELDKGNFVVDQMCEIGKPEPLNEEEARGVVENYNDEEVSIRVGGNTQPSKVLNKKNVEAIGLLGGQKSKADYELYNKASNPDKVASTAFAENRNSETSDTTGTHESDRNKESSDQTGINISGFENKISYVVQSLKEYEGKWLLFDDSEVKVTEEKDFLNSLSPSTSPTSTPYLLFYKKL
Chain of USP1/UAF1 enzyme (Q8TAF3 whole entry partner): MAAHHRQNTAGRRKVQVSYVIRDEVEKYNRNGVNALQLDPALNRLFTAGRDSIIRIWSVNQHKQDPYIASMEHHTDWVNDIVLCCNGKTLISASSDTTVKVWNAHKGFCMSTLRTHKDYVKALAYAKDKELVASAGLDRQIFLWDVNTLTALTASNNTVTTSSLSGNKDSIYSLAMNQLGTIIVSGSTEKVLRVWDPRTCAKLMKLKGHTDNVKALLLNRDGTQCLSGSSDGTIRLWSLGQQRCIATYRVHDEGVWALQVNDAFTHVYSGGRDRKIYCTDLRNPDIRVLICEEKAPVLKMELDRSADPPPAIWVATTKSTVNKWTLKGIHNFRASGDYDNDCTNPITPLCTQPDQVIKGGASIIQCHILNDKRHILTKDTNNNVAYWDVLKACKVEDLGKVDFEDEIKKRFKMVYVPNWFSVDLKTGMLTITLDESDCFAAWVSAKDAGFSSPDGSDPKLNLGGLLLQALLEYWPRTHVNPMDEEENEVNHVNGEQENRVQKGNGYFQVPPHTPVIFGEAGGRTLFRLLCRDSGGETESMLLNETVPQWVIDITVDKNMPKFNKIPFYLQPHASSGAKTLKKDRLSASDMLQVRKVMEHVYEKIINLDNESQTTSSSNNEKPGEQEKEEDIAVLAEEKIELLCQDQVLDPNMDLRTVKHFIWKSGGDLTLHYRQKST

SMILES | half-life at 1 μM [1] [min] | half-life at 1 μM [2] [min] | IC50 (USP1/UAF1 enzyme) [µM] | solubility at 24 h [3, 4] [µM] | solubility at 24 h [3, 5] [µM]
COc1ncnc(C2CC2)c1-c1cc2n(n1)CCC(=O)N2Cc1ccc(-n2nc(C#N)cc2OC)c(F)c1 [Example 8, (4-((2-(4-cyclopropyl-6-methoxypyrimidin-5-yl)-5-oxo-6,7-dihydropyrazolo[1,5-a]pyrimidin-4(5H)-yl)methyl)-2-fluorophenyl)-5-methoxy-1H-pyrazole-3-carbonitrile] | > 25 | > 25 | 0.1 to 0.5 | ≥ 10 | < 10
COc1ccnc(C(C)C)c1-c1cc2n(n1)CCC(=O)N2Cc1ccc(-c2nc(C(F)(F)F)cn2C)cc1 [Example 13, 2-(2-isopropyl-4-methoxypyridin-3-yl)-4-(4-(1-methyl-4-(trifluoromethyl)-1H-imidazol-2-yl)benzyl)-6,7-dihydropyrazolo[1,5-a]pyrimidin-5(4H)-one] | < 25 | < 25 | 0.1 to 0.5 | ≥ 10 | ≥ 10
Cn1cc(C(F)(F)F)nc1-c1ccc(CN2C(=O)CCn3nc(-c4c(Cl)cnn4C4CCC4)cc32)cc1F [Example 19, 2-(4-chloro-1-cyclobutyl-1H-pyrazol-5-yl)-4-(3-fluoro-4-(1-methyl-4-(trifluoromethyl)-1H-imidazol-2-yl)benzyl)-6,7-dihydropyrazolo[1,5-a]pyrimidin-5(4H)-one] | < 25 | < 25 | < 0.1 | < 10 | < 10
Cc1cnn(C(C)C)c1-c1cc2n(n1)CC(C)C(=O)N2Cc1ccc(-c2nc(C(F)(F)F)cn2C)cc1 (stereo not drawn) [Example 31, 2-(1-isopropyl-4-methyl-1H-pyrazol-5-yl)-6-methyl-4-(4-(1-methyl-4-(trifluoromethyl)-1H-imidazol-2-yl)benzyl)-6,7-dihydropyrazolo[1,5-α]pyrimidin-5(4H)-one] | < 25 | < 25 | 0.1 to 0.5 | ≥ 10 | < 10
COc1ncnc(C2CC2)c1-c1cc2n(n1)CC(C)C(=O)N2Cc1ccc(-c2nc(C(F)(F)F)cn2C)cc1 (stereo not shown) [Example 32] | > 25 | > 25 | < 0.1 | ≥ 10 | < 10
Cc1cnn(C(C)C)c1-c1nn2c(c1Cl)N(Cc1ccc(-c3nc(C(F)(F)F)cn3C)cc1)C(=O)CC2 [Example 34] | < 25 | < 25 | 0.1 to 0.5 | < 10 | < 10
Cc1cnn(C(C)C)c1-c1cc2n(n1)C(C)CC(=O)N2Cc1ccc(-c2nc(C(F)(F)F)cn2C)cc1 (stereo not drawn) [Example 36, 2-(1-isopropyl-4-methyl-1H-pyrazol-5-yl)-7-methyl-4-(4-(1-methyl-4-(trifluoromethyl)-1H-imidazol-2-yl)benzyl)-6,7-dihydropyrazolo[1,5-α]pyrimidin-5(4H)-one] | < 25 | < 25 | < 0.1 | ≥ 10 | ≥ 10
Cc1cnn(C(C)C)c1-c1cc2n(n1)CCCN2Cc1ccc(-n2nc(C(F)(F)F)cc2C)cc1 [Example 52, 2-(1-isopropyl-4-methyl-1H-pyrazol-5-yl)-4-(4-(5-methyl-3-(trifluoromethyl)-1H-pyrazol-1-yl)benzyl)-4,5,6,7-tetrahydropyrazolo[1,5-α]pyrimidine] | < 25 | < 25 | < 0.1 | < 10 | < 10
Cc1cnn(C(C)C)c1-c1cc2n(n1)CCCN2Cc1ccc(-n2nc(C(F)(F)F)cc2C)c(F)c1 [Example 56] | < 25 | < 25 | < 0.1 | < 10 | < 10
CCn1cc(C(F)(F)F)nc1-c1ccc(CN2CCCn3nc(-c4c(Cl)cnn4C(C)C)cc32)cc1F [Example 60] | < 25 | < 25 | < 0.1 | < 10 | < 10
CCn1cc(C(F)(F)F)nc1-c1ccc(CN2C(=O)CCn3nc(-c4c(Cl)cnn4C(C)C)cc32)cc1F [Example 77, 2-(4-chloro-1-isopropyl-1H-pyrazol-5-yl)-4-(4-(1-ethyl-4-(trifluoromethyl)-1H-imidazol-2-yl)-3-fluorobenzyl)-6,7-dihydropyrazolo[1,5-α]pyrimidin-5(4H)-one] | < 25 | > 25 | < 0.1 | < 10 | < 10
Cc1cn(C)nc1-c1ccc(CN2C(=O)CCn3nc(-c4c(Cl)cnn4C(C)C)cc32)cc1 [Example 93] | < 25 | < 25 | < 0.1 | < 10 | < 10
COCc1cc(C(F)(F)F)nn1-c1ccc(CN2C(=O)CCn3nc(-c4c(Cl)cnn4C(C)C)cc32)cc1 [Example 100] | < 25 | < 25 | < 0.1 | < 10 | < 10
COc1cc(C#N)nn1-c1ccc(CN2C(=O)CCn3nc(-c4c(Cl)cnn4C(C)C)cc32)cc1 [Example 106] | > 25 | > 25 | < 0.1 | < 10 | < 10
CC(C)n1cc([N+](=O)[O-])nc1-c1ccc(CN2C(=O)CCn3nc(-c4c(Cl)cnn4C(C)C)cc32)cc1 [Example 112] | < 25 | > 25 | < 0.1 | < 10 | < 10
COc1cc([C@H](C)N2C(=O)CCn3nc(-c4c(OC)ncnc4C4CC4)cc32)ccc1-c1nc(C(F)(F)F)cn1C(C)C [Example 128] | < 25 | < 25 | 0.1 to 0.5 | ≥ 10 | < 10
CC(C)n1ncc(Cl)c1-c1cc2n(n1)CCC(=O)N2Cc1ccc(-c2cn(C)c(C(F)(F)F)n2)c(F)c1 [Example 130] | > 25 | > 25 | 0.1 to 0.5 | < 10 | < 10
CCn1cc(C(F)(F)F)nc1-c1ccc(CN2C(=O)CCn3nc(-c4c(Cl)cnn4C4COC4)cc32)cc1 [Example 154, 2-(4-chloro-1-(oxetan-3-yl)-1H-pyrazol-5-yl)-4-(4-(1-ethyl-4-(trifluoromethyl)-1H-imidazol-2-yl)benzyl)-6,7-dihydropyrazolo[1,5-α]pyrimidin-5(4H)-one] | > 25 | > 25 | < 0.1 | < 10 | < 10
CCn1cc(C(F)(F)F)nc1-c1ccc(CN2C(=O)CCn3nc(-c4c(C#N)cnn4C(C)C)cc32)cc1 [Example 156] | > 25 | > 25 | < 0.1 | < 10 | < 10
CCn1cc(C(F)(F)F)nc1-c1ccc([C@H](C)N2C(=O)CCn3nc(-c4c(Cl)cnn4C(C)C)nc32)cc1OC [Example 179] | < 25 | < 25 | 0.1 to 0.5 | ≥ 10 | < 10
CCn1cc(C(F)(F)F)nc1-c1c(F)cc(CN2C(=O)CCn3nc(-c4c(Cl)cnn4C(C)C)nc32)cc1OC [Example 187] | < 25 | > 25 | 0.1 to 0.5 | < 10 | < 10
COc1cc(-c2nc(C(F)(F)F)cn2C(C)C)c(F)cc1CN1C(=O)CCn2nc(-c3c(OC)ncnc3C3CC3)nc21 [Example 202] | > 25 | > 25 | < 0.1 | < 10 | < 10
COc1ncnc(C2CC2)c1-c1nc2n(n1)CCC(=O)N2[C@@H](C)c1ccc(-c2nc(C(F)(F)F)c(Br)n2C)cc1 [Example 205] | > 25 | < 25 | < 0.1 | < 10 | ≥ 10
COc1ccnc(C2CC2)c1-c1nc2n(n1)CCC(=O)N2Cc1ccc(-c2nc(C(F)(F)F)cn2C(C)C)c(F)c1 [Example 207] | > 25 | < 25 | 0.1 to 0.5 | ≥ 10 | < 10
CCn1cc(C(F)(F)F)nc1-c1ccc([C@@H](C)N2C(=O)CCn3nc(-c4c(OC(F)F)ncnc4C4CC4)nc32)cc1 [Example 208] | < 25 | > 25 | < 0.1 | ≥ 10 | ≥ 10
CCn1cc(C(F)(F)F)nc1-c1ccc([C@H](C)N2C(=O)CCn3nc(-c4c(OC(F)F)ncnc4C4CC4)nc32)cc1 [Example 209] | < 25 | < 25 | < 0.1 | ≥ 10 | < 10
